Data: the supplement of paper PMC10011410
± gives the standard deviation of the averaged measurements.

What was measured:
[1] = system: U-2 OS; assay: relative cell count vs DMSO (cell painting) (fraction of DMSO control); higher = more cells remaining (less cytotoxic); conditions: 24 h
In short: (§1)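 Images taken on an Opera Phenix of U-2 OS cells stained with MitoTracker, concanavalin A, phalloidin, wheat germ agglutinin, Hoechst and SYTO 14 were processed in CellProfiler, with features normalized to DMSO cells on the same plate. The cells, about 1,500 per well in 384-well plates, had been treated by pin tool for 24 h at 37 °C, usually at six 2-fold concentrations from 20 μM to 625 nM. The activity score measures Mahalanobis distance from DMSO wells, and cell count is expressed relative to DMSO wells. Each value averages four replicate plates.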

[2] = system: U-2 OS; assay: cell painting activity score (Mahalanobis distance from DMSO wells); higher = stronger morphological phenotype; conditions: 24 h
In short: as §1

[3] = system: U-2 OS; assay: AUC of culture confluence over time (live-cell imaging) (AUC (confluence % x time)); higher = more confluent culture (less growth inhibition)
In short: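 The value is the area under the curve of confluence plotted against time. U-2 OS cells in F-12K medium with 10% FBS were seeded at 750 per well in 384-well plates, then treated by pin tool 24 h later, most compounds at 20, 10 and 5 μM with 0.2% DMSO. At 37 °C, an Incucyte S3 with a 10x objective imaged the wells every 4 h for up to 60 h.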

[4] = system: U-2 OS; assay: cell viability (CellTiter-Glo) relative to DMSO (% of control); higher = more viable; conditions: 24 h
Protocol: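 Cell viability of U-2 OS cells by CellTiter-Glo after 24 h compound treatment at 5, 10 and 20 uM (some at 40 and 80 uM), measured in parallel with the glutathione assay, as percent of DMSO control. Five technical replicate plates, averaged.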

[5] = system: U-2 OS; assay: intracellular GSH:GSSG ratio (calculated); higher = more reduced glutathione pool; conditions: 24 h
Protocol: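 Intracellular glutathione in U-2 OS cells after 24 h compound treatment at 5, 10 and 20 uM (some at 40 and 80 uM). Total glutathione and GSSG were measured with the GSH/GSSG-Glo kit, and the GSH:GSSG ratio was calculated. Mean of five technical replicate plates.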

[6] = system: U-2 OS; assay: total intracellular glutathione (GSH + GSSG) relative to DMSO (% of control); higher = more glutathione; conditions: 24 h
Protocol: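 Total intracellular glutathione (GSH + GSSG) in U-2 OS cells by GSH/GSSG-Glo after 24 h compound treatment at 5, 10 and 20 uM (some at 40 and 80 uM), as percent of DMSO control. Five technical replicate plates, averaged.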

SMILES | relative cell count ([1]; 0.625 µM) | relative cell count ([1]; 1.25 µM) | relative cell count ([1]; 2.5 µM) | relative cell count ([1]; 5 µM) | relative cell count ([1]; 10 µM) | relative cell count ([1]; 20 µM) | cell painting activity score ([2]; 0.625 µM) | cell painting activity score ([2]; 1.25 µM) | cell painting activity score ([2]; 2.5 µM) | cell painting activity score ([2]; 5 µM) | cell painting activity score ([2]; 10 µM) | cell painting activity score ([2]; 20 µM) | AUC of culture confluence over time ([3]; 0.625 µM) | AUC of culture confluence over time ([3]; 1.25 µM) | AUC of culture confluence over time ([3]; 2.5 µM) | AUC of culture confluence over time ([3]; 5 µM) | AUC of culture confluence over time ([3]; 10 µM) | AUC of culture confluence over time ([3]; 20 µM) | cell viability ([4]; 5 µM) | cell viability ([4]; 10 µM) | cell viability ([4]; 20 µM) | intracellular GSH:GSSG ratio ([5]; 5 µM) | intracellular GSH:GSSG ratio ([5]; 10 µM) | intracellular GSH:GSSG ratio ([5]; 20 µM) | total intracellular glutathione ([6]; 5 µM) | total intracellular glutathione ([6]; 10 µM) | total intracellular glutathione ([6]; 20 µM) | relative cell count ([1]; 40 µM) | relative cell count ([1]; 80 µM) | cell painting activity score ([2]; 40 µM) | cell painting activity score ([2]; 80 µM) | AUC of culture confluence over time ([3]; 40 µM) | AUC of culture confluence over time ([3]; 80 µM) | cell viability ([4]; 40 µM) | cell viability ([4]; 80 µM) | intracellular GSH:GSSG ratio ([5]; 40 µM) | intracellular GSH:GSSG ratio ([5]; 80 µM) | total intracellular glutathione ([6]; 40 µM) | total intracellular glutathione ([6]; 80 µM)
COC(=O)Nc1nc2ccc(C(=O)c3cccs3)cc2[nH]1 | 0.272 ± 0.056 | 0.265 ± 0.032 | 0.243 ± 0.033 | 0.232 ± 0.034 | 0.222 ± 0.035 | 0.211 ± 0.036 | 19.6 ± 2.7 | 18.4 ± 2.2 | 21.5 ± 2.2 | 22.3 ± 1.8 | 22.7 ± 1.8 | 23.1 ± 1.4 | 20.9 | 19.1 | 21.5 | 20.2 | 18.8 | 24.1 | 54.8 ± 7 | 47.5 ± 5.7 | 52.3 ± 9.2 | 3.33 | 2.36 | 2.95 | 53.1 ± 6.4 | 50.2 ± 4.2 | 51.4 ± 6 | – | – | – | – | – | – | – | – | – | – | – | –
CC(=O)c1c(O)c(C)c(O)c(Cc2c(O)c3c(c(C(=O)C=Cc4ccccc4)c2O)OC(C)(C)C=C3)c1O | 1.07 | 1.12 | 1.14 | 1.14 | 1.11 | 1.07 | 4.78 | 3.41 | 4.37 | 3.79 | 6.83 | 11.2 | – | – | – | 39.9 | 35.4 | 29 | 98.4 ± 1.9 | 93.9 ± 3.6 | 91.9 ± 4.7 | 25.1 | 24.3 | 26.6 | 95.7 ± 2.9 | 91.7 ± 4.9 | 89.9 ± 4.4 | 0.889 | 0.727 | 13.1 | 12.8 | 22.2 | 18.2 | 89 ± 4.1 | 78.4 ± 1.5 | 26.7 | 15 | 83.2 ± 1.9 | 84.2 ± 4.5
O=C(NNS(=O)(=O)c1ccccc1)c1cc(-c2ccnnc2)ccc1F | 0.985 | 0.95 | 0.967 | 1.02 | 0.939 | 1.04 | 4.47 | 4.16 | 3.77 | 3.67 | 4.24 | 4.38 | – | – | – | 49.6 | 50 | 49.6 | 95.6 ± 5.4 | 87.5 ± 7.7 | 88.5 ± 3.6 | 23.9 | 21.4 | 23.2 | 98 ± 3.1 | 94.3 ± 3 | 94.6 ± 4.8 | – | – | – | – | – | – | – | – | – | – | – | –
